Key:
[1] = molecular target: T1, human AT1 receptor (Homo sapiens, UniProt P30556); test: AT1 functional assay (FLIPR Ca efflux, Angiotensin-II at EC80); format: cell-based; details: CHO cells over-expressing full length human AT1 receptor; Angiotensin-II as agonist at EC80
T1 construct: CHO cell stably over-expressing the full length human AT1 receptor; expressed in transfected cells
T1 sequence (P30556 1-359): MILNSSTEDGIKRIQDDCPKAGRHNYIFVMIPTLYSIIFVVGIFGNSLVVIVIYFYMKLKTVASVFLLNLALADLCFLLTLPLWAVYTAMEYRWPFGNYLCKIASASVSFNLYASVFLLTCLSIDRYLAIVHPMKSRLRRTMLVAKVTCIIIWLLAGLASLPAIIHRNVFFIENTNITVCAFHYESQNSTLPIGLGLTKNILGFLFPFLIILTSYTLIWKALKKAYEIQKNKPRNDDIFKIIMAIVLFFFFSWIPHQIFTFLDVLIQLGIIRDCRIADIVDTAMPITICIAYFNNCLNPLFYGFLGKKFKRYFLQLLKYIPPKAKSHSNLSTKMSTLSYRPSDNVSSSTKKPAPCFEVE
Procedure: CHO cell stably over-expressing the full length human AT1 receptor was cultured in DMEM (Gibco) with 10% FCS (Hyclone) and selection maintained using 0.5 mg/ml G418 (Gibco). Cell at 70% confluence were trypsnised, resuspended in media and counted. 20,000 cells/well were plated into black polystyrene 384-well plates with transparent bottoms and allowed 16 hours to adhere. The cells were loaded with Flou-4 (TEFLABS, USA) dye in HBSS (Gibco) for 1 hour and then washed in HBSS and 0.6 μl of diluted compounds in DMSO added to the cells in 30 μd of HBSS in Multimek liquid handling system (Beckman, USA). The cells were then placed in the Fluorometric Imaging Plate Readers (FLIPR, Molecular Devices, USA) and 20 μl of Angiotensin-II peptide as agonist (at EC80) in HBSS was added in the instrument.
(§1) The Ca efflux was followed for 2 mins and the maximum height of the peak was measured at various compound concentrations and plotted according to the equation
(§2) and IC50 estimated wherein A is the bottom plateau of the curve i.e. the final minimum y value B is the top of the plateau of the curve i.e. the final maximum y value C is the x value at the middle of the curve. This represents the log EC50 value when A+B=100 D is the slope factor. x is the original known x values. y is the original known y values.

[2] = molecular target: T2, human ETA receptor (Homo sapiens, UniProt P25101); test: ETA functional assay (FLIPR Ca efflux, Endothelin-1 at EC80); format: cell-based; details: CHO cells over-expressing full length human ETA receptor; Endothelin-1 as agonist at EC80
T2 construct: CHO cell stably over-expressing the full length human ETA receptor; expressed in transfected cells
T2 sequence (P25101 21-427): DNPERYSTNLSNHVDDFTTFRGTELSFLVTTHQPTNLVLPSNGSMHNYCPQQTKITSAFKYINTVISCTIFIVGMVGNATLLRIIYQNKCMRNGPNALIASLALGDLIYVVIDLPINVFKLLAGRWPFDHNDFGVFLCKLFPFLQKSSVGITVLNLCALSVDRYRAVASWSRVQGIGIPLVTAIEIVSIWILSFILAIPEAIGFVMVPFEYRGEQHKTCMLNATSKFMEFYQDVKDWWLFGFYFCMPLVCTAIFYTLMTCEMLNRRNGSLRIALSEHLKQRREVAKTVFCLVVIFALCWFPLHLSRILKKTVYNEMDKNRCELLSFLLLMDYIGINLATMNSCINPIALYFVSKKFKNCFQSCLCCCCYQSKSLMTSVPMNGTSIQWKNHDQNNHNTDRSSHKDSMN
Procedure: CHO cell stably over-expressing the full length human ETA receptor was cultured in DMEM (Gibco) with 10% FCS (Hyclone) and selection maintained using 0.5 mg/ml G418 (Gibco). Cell at 70% confluence were trypsnised, resuspended in media and counted. 20,000 cells/well were plated into black polystyrene 384-well plates with transparent bottoms and allowed 16 hours to adhere. The cells were loaded with Flou-4 (TEFLABS, USA) dye in BSS (Gibco) for 1 hour and then washed in HBSS and 0.6 μl of diluted compounds in DMSO added to the cells in 30 μl of HBSS in Multimek liquid handling system (Beckman, USA). The cells were then placed in the Fluorometric Imaging Plate Readers (FLIPR, Molecular Devices, USA) and 20 μl of Endothelin-1 peptide as agonist in HBSS (at EC80) was added in the instrument.
as §1, §2

CCc1nc(C)cc2c1c(CC)nn2Cc1ccc(-c2cc(C)sc2S(=O)(=O)Nc2noc(C)c2C)c(COC)c1 [Example 38, 3-[4-(3,4-Diethyl-6-methyl-pyrazolo[4,3-c]pyridin-1-ylmethyl)-2-methoxymethyl-phenyl]-5-methyl-thiophene-2-sulfonic acid (4,5-dimethyl-isoxazol-3-yl)-amide]
IC50 [1]: 17.2 nM | IC50 [2]: 1040 nM

CCOc1cc(=O)n(Cc2ccc(-c3cc(C)sc3S(=O)(=O)Nc3noc(C)c3C)c(C)c2)c2cc(CC)nc(CC)c12 [Example 39, 3-[4-(4-Ethoxy-5,7-diethyl-2-oxo-2H-[1,6]naphthyridin-1-ylmethyl)-2-methyl-phenyl]-5-methyl-thiophene-2-sulfonic acid (4,5-dimethyl-isoxazol-3-yl)-amide]
IC50 [1]: 25.1 nM | IC50 [2]: 781 nM

From patent US20100010035A1, “Novel Dual Action Receptors Antagonists (Dara) at the Ati and Eta Receptors” (priority 2006, published 2010)
